How the values were obtained:
[1] = biological target: T1, Replicase polyprotein 1ab (Severe acute respiratory syndrome coronavirus 2, UniProt P0DTD1); test: Inhibition of SARS-CoV-2 3CL protease extracted from Escherichia coli BL21 (DE3) Rosetta cells using DabcylKNSTLQSGLRKE-Edan as substrate preincubated for 60 mins followed by substrate addition and measured after 20 mins by FRET assay
[2] = biological target: T1, Replicase polyprotein 1ab; test: Binding affinity to SARS-CoV-2 3CL protease extracted from Escherichia coli BL21 (DE3) Rosetta cells assessed as dissociation constant
[3] = biological target: T1, Replicase polyprotein 1ab; test: Binding affinity to SARS-CoV-2 3CL protease assessed as dissociation constant by SPR analysis
[4] = biological target: T1, Replicase polyprotein 1ab; test: Inhibition of SARS-CoV-2 3CL protease by FRET assay

CCC(C(=O)Nc1cc(NC2CCOCC2)ccc1C)n1cc(Cl)cc2nc(SCc3ccc(F)cc3)nc1-2 (stereo not given)
IC50 [1]: 520 nM | Kd [2]: 1000 nM

CCC(C(=O)Nc1cc(NC2CCOC2)ccc1C)n1cc(Cl)cc2nc(SCc3ccc(F)cc3)nc1-2 (stereo not given)
Kd [2]: 1110 nM

CCC(C(=O)Nc1cc(NC2COC2)ccc1C)n1cccc2nc(SCc3ccc(F)cc3)nc1-2 (stereo not given)
Kd [3]: 1400 nM

CCC(C(=O)Nc1cc(NC2CCNC2)ccc1C)n1cccc2nc(SCc3ccc(F)cc3)nc1-2 (stereo not given)
IC50 [4]: 140 nM
